Experimental data published in publication PMC7470138, “Novel heterocyclic hybrids of pyrazole targeting dihydrofolate reductase: design, biological evaluation and in silico studies” (Journal of Enzyme Inhibition and Medicinal Chemistry, 2020).
≈ marks a conversion by molar mass, not a printed value.

What was measured:
[1] = tested on: all tested strains (S. pneumoniae, B. subtilis, P. aeruginosa, E. coli, A. fumigates, C. albicans); assay: Antimicrobial sensitivity assay, agar well diffusion (inhibition zone); format: cell-based; conditions: tested bacteria and fungi
A. fumigatus RCMB 002568 = assay: Minimum inhibitory concentration (MIC), antifungal; format: cell-based, Aspergillus fumigates; conditions: A. fumigatus RCMB 002568, fungi, mean of three values; for MIC: Aspergillus fumigatus, RCMB002568, read-out: MIC (Mean ± SEM)
C. albicans RCMB 005036 = assay: Minimum inhibitory concentration (MIC), antifungal; format: cell-based; conditions: Candida albicans, RCMB005036; C. albicans RCMB 005036, fungi; mean of three values; read-out: MIC (Mean ± SEM)
S. pneumonia RCMB 010010 = assay: Minimum inhibitory concentration (MIC), antibacterial; format: cell-based, Streptococcus pneumoniae; conditions: S. pneumonia RCMB 010010, Gram-positive, mean of three values; for MIC: Streptococcus pneumoniae, RCMB010010, read-out: MIC (Mean ± SEM)
B. subtilis RCMB 010067 = assay: as above; format: cell-based; conditions: Bacillus subtilis, RCMB010067; B. subtilis RCMB 010067, Gram-positive; mean of three values; read-out: MIC (Mean ± SEM)
[2] = tested on: P. aeruginosa RCMB 010043; assay: as above; format: cell-based; conditions: Pseudomonas aeruginosa, RCMB010043; P. aeruginosa RCMB 010043, Gram-negative; mean of three values; read-out: MIC (Mean ± SEM)
E. coli RCMB 010052 = assay: as above; format: cell-based; conditions: Escherichia coli, RCMB010052; E. coli RCMB 010052, Gram-negative; mean of three values; read-out: MIC (Mean ± SEM)
[3] = molecular target: T1, dihydrofolate reductase (DHFR) (Homo sapiens, UniProt P00374); assay: In vitro enzyme assay on dihydrofolate reductase (DHFR); format: biochemical; conditions: absorbance at 340 nm, 22 °C, mean of three values, read-out: IC50 (Mean ± SEM) DHFR
T1 sequence (P00374 1-187): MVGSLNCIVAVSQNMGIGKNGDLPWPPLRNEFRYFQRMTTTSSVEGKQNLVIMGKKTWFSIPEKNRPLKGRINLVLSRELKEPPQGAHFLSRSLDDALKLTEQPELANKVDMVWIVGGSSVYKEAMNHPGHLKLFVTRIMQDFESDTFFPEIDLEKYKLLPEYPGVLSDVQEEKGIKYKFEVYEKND

melting point	MIC (Mean ± SEM) (A. fumigatus RCMB 002568)	MIC (A. fumigatus RCMB 002568)	MIC (C. albicans RCMB 005036)	MIC (S. pneumonia RCMB 010010)	MIC (B. subtilis RCMB 010067)	MIC [2]	MIC (E. coli RCMB 010052)	IC50 [3]	MIC (Mean ± SEM) (S. pneumonia RCMB 010010)	SMILES	antimicrobial activity (in words) [1]
257 to 259 °C										Cc1nnc2n(-c3ccccc3)c(=S)n(-c3cccc4ccccc34)nc1-2 [Compound 8b, 7-Methyl-2-(naphthalen-1-yl)-4-phenyl-2,4-dihydro-3H-pyrazolo[3,4-e][1,2,4]triazine-3-thione]	either inactive or less active
	1.95 µg/mL (≈ 2.11 µM)	1.95 ± 0.3 µg/mL (≈ 2.11 µM)	3.9 ± 0.1 µg/mL (≈ 4.22 µM)							C[C@@H]1[C@H](O)[C@@H](C)/C=C/C=C/C=C/C=C/C=C/C=C/C=C/[C@H](O[C@@H]2O[C@H](C)[C@@H](O)[C@H](N)[C@@H]2O)C[C@@H]2O[C@](O)(C[C@@H](O)C[C@@H](O)[C@H](O)CC[C@@H](O)C[C@@H](O)CC(=O)O[C@H]1C)C[C@H](O)[C@H]2C(=O)O [Amphotericin B, reference compound]	
189 to 191 °C		125 ± 0.2 µg/mL (≈ 495 µM)	62.5 ± 0.1 µg/mL (≈ 248 µM)	7.81 ± 0.1 µg/mL (≈ 31 µM)	15.6 ± 0.5 µg/mL (≈ 62 µM)	125 ± 0.3 µg/mL (≈ 495 µM)	250 ± 0.5 µg/mL (≈ 991 µM)	18.3 ± 0.81 µM		CC1=NNC(=O)C1=NNc1cccc2ccccc12 [Compound 3b, 5-Methyl-4–(2-(naphthalene-1-yl)hydrazineylidene)-2,4-dihydro-3H-pyrazol-3-one]	
				0.98 ± 0.2 µg/mL (≈ 2.96 µM)	0.1 ± 0.3 µg/mL (≈ 0.302 µM)	0.5 ± 0.05 µg/mL (≈ 1.51 µM)	0.01 ± 0.1 µg/mL (≈ 0.0302 µM)		0.98 µg/mL (≈ 2.96 µM)	O=C(O)c1cn(C2CC2)c2cc(N3CCNCC3)c(F)cc2c1=O [Ciprofloxacin, reference compound]	
		0.98 ± 0.2 µg/mL (≈ 2.98 µM)	3.9 ± 0.03 µg/mL (≈ 11.8 µM)	0.98 ± 0.1 µg/mL (≈ 2.98 µM)	0.49 ± 0.2 µg/mL (≈ 1.49 µM)	3.9 ± 0.1 µg/mL (≈ 11.8 µM)	0.49 ± 0.4 µg/mL (≈ 1.49 µM)			Cc1nnc2c(C#N)c(N)n(-c3ccc(S(N)(=O)=O)cc3)nc1-2 [Compound 6a, 4-(6-Amino-7-cyano-3-methyl-5H-pyrazolo[4,3-c]pyridazin-5-yl)benzenesulphonamide]	highly active
282 to 284 °C										Cc1n[nH]c2c(C#N)c(=O)n(-c3cccc4ccccc34)nc12 [Compound 6d, 3-Methyl-5-(naphthalen-1-yl)-6-oxo-5,6-dihydro-1H-pyrazolo[4,3-c]pyridazine-7-carbonitrile]	either inactive or less active
	1.95 µg/mL (≈ 6.93 µM)	1.95 ± 0.1 µg/mL (≈ 6.93 µM)	3.9 ± 0.3 µg/mL (≈ 13.9 µM)	1.95 ± 0.3 µg/mL (≈ 6.93 µM)	0.98 ± 0.1 µg/mL (≈ 3.48 µM)	7.81 ± 0.3 µg/mL (≈ 27.8 µM)	0.98 ± 0.6 µg/mL (≈ 3.48 µM)		1.95 µg/mL (≈ 6.93 µM)	CC1=NNC(=O)C1=NNc1ccc(S(N)(=O)=O)cc1 [Compound 3a, 4-(2-(3-Methyl-5-oxo-1,5-dihydro-4H-pyrazol-4-ylidene)hydrazineyl)benzenesulfonamide]	
275 to 277 °C		3.9 ± 0.1 µg/mL (≈ 9.79 µM)	62.5 ± 0.5 µg/mL (≈ 157 µM)	15.6 ± 0.5 µg/mL (≈ 39.2 µM)	125 ± 0.4 µg/mL (≈ 314 µM)	125 ± 0.3 µg/mL (≈ 314 µM)	62.5 ± 0.3 µg/mL (≈ 157 µM)	1.36 ± 0.12 µM		Cc1nnc2n(-c3ccccc3)c(=S)n(-c3ccc(S(N)(=O)=O)cc3)nc1-2 [Compound 8a, 4-(7-Methyl-4-phenyl-3-thioxo-3,4-dihydro-2H-pyrazolo[3,4-e][1,2,4]triazin-2-yl)benzenesulphonamide]	highly active
	1.95 µg/mL (≈ 5.9 µM)	1.95 ± 0.3 µg/mL (≈ 5.9 µM)	7.81 ± 0.05 µg/mL (≈ 23.6 µM)	1.95 ± 0.4 µg/mL (≈ 5.9 µM)	0.98 ± 0.1 µg/mL (≈ 2.97 µM)	62.5 ± 0.3 µg/mL (≈ 189 µM)	0.98 ± 0.1 µg/mL (≈ 2.97 µM)	5.24 ± 0.37 µM	1.95 µg/mL (≈ 5.9 µM)	Cc1n[nH]c2c(C#N)c(=O)n(-c3ccc(S(N)(=O)=O)cc3)nc12 [Compound 6b, 4-(7-Cyano-3-methyl-6-oxo-1,6-dihydro-5H-pyrazolo[4,3-c]pyridazin-5-yl)benzenesulphonamide]	highly active
288 to 290 °C										Cc1nnc2c(C#N)c(N)n(-c3cccc4ccccc34)nc1-2 [Compound 6c, 6-Amino-3-methyl-5-(naphthalen-1-yl)-5H-pyrazolo[4,3-c]pyridazine-7-carbonitrile]	either inactive or less active
> 300 °C		250 ± 0.2 µg/mL (≈ 898 µM)	7.81 ± 0.2 µg/mL (≈ 28.1 µM)	3.9 ± 0.3 µg/mL (≈ 14 µM)	1.95 ± 0.08 µg/mL (≈ 7.01 µM)	15.6 ± 0.5 µg/mL (≈ 56.2 µM)	1.95 ± 0.3 µg/mL (≈ 7.01 µM)	1.45 ± 0.23 µM		Cc1n[nH]c2nn(-c3ccc(S(N)(=O)=O)cc3)nc12 [Compound 9a, 4-(6-Methylpyrazolo[3,4-d][1,2,3]triazol-2(4H)-yl)benzenesulphonamide]	highly active
> 300 °C										Cc1n[nH]c2nn(-c3cccc4ccccc34)nc12 [Compound 9b, 6-Methyl-2-(naphthalen-1-yl)-2,4-dihydropyrazolo[3,4-d][1,2,3]triazole]	either inactive or less active
